Reference: US20260374766A1, “METHODS FOR TREATING CANCER” (Antares Therapeutics, Inc., priority 2022, published 2026)

How the values were obtained:
[1] = molecular target: T1, p53 Y220C mutant protein (amino acid residues 94-293) (Homo sapiens, UniProt P04637, Y220C); assay: Surface Plasmon Resonance (SPR) assay, Kd_kinetic; assay type: binding; details: SPR; p53 Y220C; read-out: SPR P53 Y220C KD kinetic
T1 construct: p53 Y220C mutant protein (amino acid residues 94-293)
Outline: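 Biacore 8K SPR; 16 or 20 °C; Tris 50 mM pH 7.5, NaCl 100 mM, DTT 1 mM, Brij35 0.01%, Tween-20 0.05%, DMSO 1%. Kd_kinetic by 1:1 fit.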

[2] = molecular target: p53 Y220C (Homo sapiens, UniProt P04637, Y220C); assay: Luciferase Reporter Assay (Luc), p53 response element, NClH1299 cells with inducible p53 Y220C; assay type: cell-based; details: luciferase reporter, NClH1299 inducible p53 Y220C, 6 hour; for AC50: read-out: Luc P53 Y220C AC50
Outline: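 H1299 cells induced with 0.5 ug/mL doxycycline for 24 hours, then exposed to compound for 6 hours. p53 response-element luciferase read by One-Glo luminescence after 5 min shaking at room temperature.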

[3] = tested on: NUGC3 p53 Y220C; assay: Cell Proliferation Assay (CellTiter-Glo, CTG), NUGC3 p53 Y220C; assay type: cell-based; details: Homo sapiens, NUGC-3, 120 h, NUGC3 cells, 5 days, CellTiter-Glo
Outline: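 Tet-One inducible p53 Y220C or R273H constructs were stably introduced into NCI-H1299 by lentiviral transduction; NUGC3 was used as is. Cells (250-500 per well) were exposed to compound for 5 days, then CellTiter-Glo was added for 10 min at room temperature and IC50 was calculated from luminescence.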

[4] = tested on: H1299 p53 R273H; assay: Cell Proliferation Assay (CellTiter-Glo, CTG), H1299 p53 R273H (NClH1299-inducible p53 R273H); assay type: cell-based; details: Homo sapiens, NCI-H1299, 120 h, NClH1299-inducible p53 R273H cells, 5 days, CellTiter-Glo
Outline: (§1)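 NClH1299 lines stably transduced with Tet-inducible p53 Y220C or R273H, plus NUGC3, were treated with compound for 5 days at 250-500 cells/well. IC50 derived from CellTiter-Glo luminescent signal after 10 min room-temperature incubation.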

[5] = tested on: H1299 p53 Y220C; assay: Cell Proliferation Assay (CellTiter-Glo, CTG), H1299 p53 Y220C (NClH1299-inducible p53 Y220C); assay type: cell-based; details: Homo sapiens, NCI-H1299, 120 h, NClH1299-inducible p53 Y220C cells, 5 days, CellTiter-Glo
Outline: as §1

T1 sequence (P04637 94-293, stated change not applied): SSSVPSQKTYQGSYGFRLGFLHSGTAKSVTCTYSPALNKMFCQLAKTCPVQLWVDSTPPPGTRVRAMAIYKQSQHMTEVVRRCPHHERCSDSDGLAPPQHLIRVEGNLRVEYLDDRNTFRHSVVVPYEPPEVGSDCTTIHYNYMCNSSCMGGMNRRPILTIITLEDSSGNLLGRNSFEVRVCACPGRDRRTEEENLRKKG

Kd [1] [nM] | AC50 [2] [nM] | Emax [2] [%] | IC50 [4] [nM] | IC50 [5] [nM] | SMILES | IC50 [3] [nM]
< 10 | < 750 | > 90 | < 5000 | < 750 | CNC(=O)c1cc(F)c(OC)c(NCC#Cc2cc3c(N[C@@H]4CCN(C)C[C@@H]4F)nccn3c2SC(F)(F)F)c1 [Example 337] | < 750
< 10 | < 750 | 80 to 90 | ≥ 10000 | < 750 | COc1cc(S(C)(=O)=O)ccc1NCC#Cc1nn2c(N[C@@H]3CCN(C)C[C@@H]3F)cccc2c1SC(F)(F)F [Example 363] | < 750
< 10 | < 750 | 70 to 80 | < 5000 | < 750 | O=C(NCC1COC1)c1ccc(NCC#Cc2cc3c(N[C@@H]4CCNC[C@@H]4F)cccn3c2SC(F)(F)F)cc1 [Example 364] | < 750
< 10 | < 750 | 80 to 90 | < 5000 | < 750 | O=C(NC[C@H]1CCO1)c1ccc(NCC#Cc2cc3c(N[C@@H]4CCNC[C@@H]4F)cccn3c2SC(F)(F)F)cc1 [Example 365] | < 750
< 10 | < 750 | > 90 | 8000 to 10000 | < 750 | O=C(NCC1(O)CC1)c1ccc(NCC#Cc2cc3c(N[C@@H]4CCNC[C@@H]4F)cccn3c2SC(F)(F)F)cc1 [Example 367] | < 750
< 10 | < 750 | 80 to 90 | 5000 to 8000 | < 750 | O=C(NC[C@@H]1CCO1)c1ccc(NCC#Cc2cc3c(N[C@@H]4CCNC[C@@H]4F)cccn3c2SC(F)(F)F)cc1 [Example 368] | < 750
< 10 | < 750 | > 90 | 5000 to 8000 | < 750 | O=C(NC[C@H]1COCCO1)c1ccc(NCC#Cc2cc3c(N[C@@H]4CCNC[C@@H]4F)cccn3c2SC(F)(F)F)cc1 [Example 369] | < 750
< 10 | < 750 | > 90 | 5000 to 8000 | < 750 | COc1cc(S(C)(=O)=O)ccc1NCC#Cc1cc2c(N[C@@H]3CCNC[C@@H]3F)cccn2c1SC(F)(F)F [Example 370] | < 750
< 10 | < 750 | > 90 | 8000 to 10000 | < 750 | C[C@@H](O)[C@@H](C)NC(=O)c1ccc(NCC#Cc2cc3c(N[C@@H]4CCN(C)C[C@@H]4F)cccn3c2SC(F)(F)F)cc1 [Example 371] | < 750
< 10 | < 750 | > 90 | 8000 to 10000 | < 750 | CC(C)(O)CNC(O)c1ccc(NCC#Cc2cc3c(N[C@@H]4CCNC[C@@H]4F)cccn3c2SC(F)(F)F)cc1 (stereo partly drawn) [Example 372] | < 750
< 10 | < 750 | 80 to 90 | ≥ 10000 | < 750 | O=C(N[C@H]1C[C@H](O)C1)c1ccc(NCC#Cc2cc3c(N[C@@H]4CCNC[C@@H]4F)cccn3c2SC(F)(F)F)cc1 [Example 373] | < 750
< 10 | < 750 | > 90 | 8000 to 10000 | < 750 | COc1cc(C(=O)NCC(C)(C)O)ccc1NCC#Cc1cc2c(N[C@@H]3CCN(C)C[C@@H]3F)cccn2c1SC(F)(F)F [Example 375] | < 750
< 10 | < 750 | > 90 | ≥ 10000 | < 750 | C[C@H](O)[C@@H](C)NC(=O)c1ccc(NCC#Cc2cc3c(N[C@@H]4CCN(C)C[C@@H]4F)cccn3c2SC(F)(F)F)cc1 [Example 376] | < 750
< 10 | < 750 | > 90 | 5000 to 8000 | < 750 | COc1cc(C(=O)N2CC(C)(O)C2)ccc1NCC#Cc1cc2c(N[C@@H]3CCN(C)C[C@@H]3F)cccn2c1SC(F)(F)F [Example 377] | < 750
< 10 | < 750 | 80 to 90 | ≥ 10000 | < 750 | COc1cc(P(C)(C)=O)ccc1NCC#Cc1cn2c(N[C@@H]3CCN(C)C[C@@H]3F)cccc2c1SC(F)(F)F [Example 378] | < 750
< 10 | < 750 | > 90 | ≥ 10000 | < 750 | COc1cc(P(C)(C)=O)ccc1NCC#Cc1cc2c(N[C@@H]3CCNC[C@@H]3F)cccn2c1SC(F)(F)F [Example 379] | < 750
< 10 | < 750 | 80 to 90 | 5000 to 8000 | < 750 | CN1CCO[C@@H](CNC(=O)c2ccc(NCC#Cc3cc4c(N[C@@H]5CCN(C)C[C@@H]5F)cccn4c3SC(F)(F)F)cc2)C1 [Example 380] | < 750
< 10 | < 750 | > 90 | 8000 to 10000 | < 750 | CNC(=O)c1ccc(OC)c(NCC#Cc2cn3c(N[C@@H]4CCNC[C@@H]4F)cccc3c2SC(F)(F)F)c1 [Example 381] | < 750
< 10 | < 750 | > 90 | 8000 to 10000 | < 750 | CN1CC[C@@H](Nc2cccn3c(SC(F)(F)F)c(C#CCNc4ccc(C(=O)NC[C@H]5CCO5)cc4)cc23)[C@@H](F)C1 [Example 382] | < 750
< 10 | < 750 | > 90 | 8000 to 10000 | < 750 | C[C@H](O)[C@H](C)NC(=O)c1ccc(NCC#Cc2cc3c(N[C@@H]4CCN(C)C[C@@H]4F)cccn3c2SC(F)(F)F)cc1 [Example 383] | < 750
< 10 | < 750 | > 90 | ≥ 10000 | < 750 | CN1CC[C@@H](Nc2cccn3c(SC(F)(F)F)c(C#CCNc4ccc(C(=O)NC[C@@H](O)CO)cc4)cc23)[C@@H](F)C1 [Example 384] | < 750
< 10 | < 750 | 80 to 90 | ≥ 10000 | < 750 | CN1CC[C@@H](Nc2cccn3c(SC(F)(F)F)c(C#CCNc4ccc(P(C)(C)=O)cc4)cc23)[C@@H](F)C1 [Example 385] | < 750
< 10 | < 750 | > 90 | ≥ 10000 | < 750 | CNC(=O)c1ccc(NCC#Cc2cc3c(N[C@@H]4CN(C)C[C@@H]4F)cccn3c2SC(F)(F)F)c(OC)c1 [Example 386] | < 750
< 10 | < 750 | 80 to 90 | 5000 to 8000 | < 750 | COc1cc(C(=O)NCC2(O)CC2)ccc1NCC#Cc1cc2c(N[C@@H]3CCNC[C@@H]3F)cccn2c1SC(F)(F)F [Example 387] | < 750
< 10 | < 750 | 80 to 90 | 5000 to 8000 | < 750 | CN1CCO[C@H](CNC(=O)c2ccc(NCC#Cc3cc4c(N[C@@H]5CCN(C)C[C@@H]5F)cccn4c3SC(F)(F)F)cc2)C1 [Example 388] | < 750
